# Molecular target: T1, LXRα (Homo sapiens, UniProt Q13133)
# T1 construct: human LXRalpha (amino acid 205-447); expressed in transfected cells; host or cells: U2/OS osteosarcoma cells electroporated with pSGGAL-LXRalpha (pSG5 vector)
# T1 sequence (Q13133 205-447): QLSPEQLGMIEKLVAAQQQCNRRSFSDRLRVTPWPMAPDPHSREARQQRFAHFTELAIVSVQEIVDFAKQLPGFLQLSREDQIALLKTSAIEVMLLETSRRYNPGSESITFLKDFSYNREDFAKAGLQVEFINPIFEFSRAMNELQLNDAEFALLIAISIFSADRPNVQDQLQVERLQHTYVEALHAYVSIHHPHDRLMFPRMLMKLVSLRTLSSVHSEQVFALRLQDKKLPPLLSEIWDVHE
# Test: Transactivation (reporter gene) assay in U2/OS cells
# Format: cell-based
# Conditions: GAL4-LXRalpha LBD luciferase reporter, U2/OS osteosarcoma cells, 48 h
# Method: Expression vectors were prepared by inserting the ligand binding domain cDNA (complementary DNA) of human LXRalpha (amino acid 205-447) and LXRbeta (amino acid 216-461) in frame with, 3′ to the yeast GAL4 transcription factor DNA binding domain and the nuclear localization signal from the T-antigen of Polyoma Virus in the eucaryotic expression vector pSG5 (Stratagene). The resulting expression vectors pSGGAL-LXRalpha and pSGGAL-LXRbeta were used in cotransfection experiments together with the pGL3 luciferase reporter plasmid containing a minimal SV40 promoter (Promega) and five copies of the UAS GAL4 recognition site. 2.5 μg pSGGAL-LXRalpha or beta were mixed with […] pGL3 5xUAS and 22.5 μg pBluscript (Stratagene) in 0.95 mL ice cold PBS containing approx. 4-9 milj. U2/OS osteosarcoma cells. After a five minute incubation on ice the cell/DNA mixture was electroporated in 0.4 cm cuvettes at 960 μF, 230 V using a BioRad electroporator and diluted to 0.32 milj cells/mL in complete DMEM [Dulbecco's Modified Eagle Medium w/o phenol red, (Gibco 11880-028) including 10% FBS (Foetal Bovine Serum), 1% PEST (Penicillin Streptomycin), 20 mM Hepes, 2 mM L-Glutamine and 0.36% Glucose Gibco 31966-021] medium. […] Luciferase activity was measured as Luminescence in the Wallac Victor reader after 15 min. incubation at room temperature. […]
compound,measurement,value
"CCCCN1C(=S)C(Nc2ccc(OC(F)F)cc2)=C(c2ccccc2)S1(=O)=O [Example 1, 2-Butyl-4-{[4-(difluoromethoxy)phenyl]amino}-5-phenylisothiazole-3(2H)-thione 1,1-dioxide]",EC50,960 nM

# Reference: patent publication US20080125396A1, “Derivatives of Isothiazol-3(2H)-Thione 1,1-Dioxides as Liver X Receptor Modulators” (AtraZeneca AB, priority 2005, published 2008)
